{
  "source": "ChEMBL document CHEMBL1201862",
  "about": "“PubChem BioAssay data set” (2004)",
  "key": {"[1]": {"target": "FAD-linked sulfhydryl oxidase ALR (Homo sapiens, UniProt P55789)", "sequence (P55789 whole entry)": "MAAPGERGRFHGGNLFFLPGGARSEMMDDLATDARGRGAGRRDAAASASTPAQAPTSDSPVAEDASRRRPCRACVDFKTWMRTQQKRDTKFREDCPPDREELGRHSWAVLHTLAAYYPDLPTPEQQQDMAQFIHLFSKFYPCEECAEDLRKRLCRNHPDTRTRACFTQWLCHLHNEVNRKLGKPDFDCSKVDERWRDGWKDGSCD", "assay": "ALR-catalysed DTT oxidation blockers – biochemical, H2O2 detection, luminescence, cherry-pick, dose response (AID 493248)"}, "[2]": {"target": "DNA dC->dU-editing enzyme APOBEC-3G (Homo sapiens, UniProt Q9HC16)", "sequence (Q9HC16 whole entry)": "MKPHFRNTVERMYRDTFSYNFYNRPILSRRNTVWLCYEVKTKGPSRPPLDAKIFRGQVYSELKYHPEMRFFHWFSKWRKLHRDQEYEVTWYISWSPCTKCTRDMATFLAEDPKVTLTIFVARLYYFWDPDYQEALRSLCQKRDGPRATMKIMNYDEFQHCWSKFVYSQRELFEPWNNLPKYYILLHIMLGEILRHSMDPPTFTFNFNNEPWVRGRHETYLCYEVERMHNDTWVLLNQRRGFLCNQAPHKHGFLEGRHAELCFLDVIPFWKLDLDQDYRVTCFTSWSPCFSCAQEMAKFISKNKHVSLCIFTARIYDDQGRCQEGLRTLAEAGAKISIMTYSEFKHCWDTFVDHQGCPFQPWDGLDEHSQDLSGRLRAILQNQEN", "assay": "Dose Response confirmation of small molecule APOBEC3G DNA Deaminase Inhibitors via a fluorescence-based single-stranded DNA deaminase assay. [Related pubchem assays (depositor defined):AID493012, AID493028]", "assay_type": "functional"}, "[3]": {"target": "Cytochrome P450 3A4 (Homo sapiens, UniProt P08684)", "sequence (P08684 whole entry)": "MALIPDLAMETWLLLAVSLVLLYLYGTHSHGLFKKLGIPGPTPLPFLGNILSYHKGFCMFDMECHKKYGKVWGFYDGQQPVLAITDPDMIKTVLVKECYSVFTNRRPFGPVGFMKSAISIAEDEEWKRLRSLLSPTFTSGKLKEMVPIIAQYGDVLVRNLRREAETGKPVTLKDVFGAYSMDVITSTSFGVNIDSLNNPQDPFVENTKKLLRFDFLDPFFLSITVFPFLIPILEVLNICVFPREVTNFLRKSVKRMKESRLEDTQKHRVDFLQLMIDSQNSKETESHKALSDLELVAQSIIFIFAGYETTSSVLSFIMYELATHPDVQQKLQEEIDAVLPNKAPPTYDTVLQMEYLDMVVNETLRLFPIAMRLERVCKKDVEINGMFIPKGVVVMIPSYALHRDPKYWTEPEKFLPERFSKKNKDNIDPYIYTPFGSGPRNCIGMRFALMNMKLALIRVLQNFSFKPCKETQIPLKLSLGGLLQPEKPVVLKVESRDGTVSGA", "details": "Potency"}, "[4]": {"target": "T1, Coagulation factor XII (Homo sapiens, UniProt P00748)", "T1 sequence (P00748 whole entry)": "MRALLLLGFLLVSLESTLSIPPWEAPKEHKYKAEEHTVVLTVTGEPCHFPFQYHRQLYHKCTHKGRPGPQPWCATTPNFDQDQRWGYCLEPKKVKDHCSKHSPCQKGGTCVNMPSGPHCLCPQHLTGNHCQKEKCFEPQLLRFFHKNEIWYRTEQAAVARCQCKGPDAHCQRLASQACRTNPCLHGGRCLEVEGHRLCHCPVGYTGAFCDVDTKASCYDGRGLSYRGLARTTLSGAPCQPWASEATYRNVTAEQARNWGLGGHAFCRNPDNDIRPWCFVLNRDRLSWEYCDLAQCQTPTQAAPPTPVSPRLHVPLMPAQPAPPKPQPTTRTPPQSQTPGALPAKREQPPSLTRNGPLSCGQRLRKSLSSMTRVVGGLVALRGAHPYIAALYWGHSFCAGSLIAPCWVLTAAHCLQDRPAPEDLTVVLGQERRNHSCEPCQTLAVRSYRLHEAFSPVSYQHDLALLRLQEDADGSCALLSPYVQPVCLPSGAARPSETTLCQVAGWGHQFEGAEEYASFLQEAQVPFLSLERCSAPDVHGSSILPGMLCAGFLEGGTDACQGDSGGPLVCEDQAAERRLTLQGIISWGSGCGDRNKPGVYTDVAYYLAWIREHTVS", "assay_type": "functional"}, "[5]": {"target": "T2, Carboxy-terminal domain RNA polymerase II polypeptide A small phosphatase 1 (Homo sapiens, UniProt Q9GZU7)", "T2 sequence (Q9GZU7 whole entry)": "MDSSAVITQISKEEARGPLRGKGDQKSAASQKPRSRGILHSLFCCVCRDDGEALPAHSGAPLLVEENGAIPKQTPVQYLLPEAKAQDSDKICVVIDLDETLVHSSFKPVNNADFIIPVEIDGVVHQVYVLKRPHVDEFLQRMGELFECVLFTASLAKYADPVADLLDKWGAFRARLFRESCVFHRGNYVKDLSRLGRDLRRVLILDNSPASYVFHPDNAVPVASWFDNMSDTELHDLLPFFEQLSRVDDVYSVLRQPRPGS", "assay": "CTDSP1 inhibitors, concentration-response, biochemical, absorbance readout, ultra-high-throughput screen actives (AID 540297)", "assay_type": "functional"}, "[6]": {"assay": "viability of HCT116 lacking mutant beta-catenin – cell-based, human colon tumor, dose response (AID 1045);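 further: HCT116 colon tumor cells with beta catenin knocked out; cells exposed to compound for 60 hours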", "assay_type": "functional"}, "[7]": {"target": "Neurotensin receptor type 1 (Homo sapiens, UniProt P30989)", "sequence (P30989 whole entry)": "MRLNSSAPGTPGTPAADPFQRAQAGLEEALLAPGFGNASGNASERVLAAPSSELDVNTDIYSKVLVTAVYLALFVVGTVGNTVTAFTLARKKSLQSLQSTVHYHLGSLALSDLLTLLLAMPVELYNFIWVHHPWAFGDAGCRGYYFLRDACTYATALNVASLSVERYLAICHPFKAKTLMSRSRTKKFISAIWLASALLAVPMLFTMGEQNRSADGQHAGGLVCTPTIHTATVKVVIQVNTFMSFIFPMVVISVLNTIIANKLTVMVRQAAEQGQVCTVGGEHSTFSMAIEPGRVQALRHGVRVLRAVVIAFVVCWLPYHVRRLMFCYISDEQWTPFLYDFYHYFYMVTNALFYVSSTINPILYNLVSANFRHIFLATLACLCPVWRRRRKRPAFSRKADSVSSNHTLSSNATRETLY", "assay_type": "functional"}, "[8]": {"assay": "viability of PTEN-deleted HCT116 cells – cell-based, HCT116 PTEN knockout, dose response (AID 1047);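 further: HCT116 colon tumor cells with PTEN knocked out; cells exposed to compound for 60 hours before readout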", "assay_type": "functional"}, "[9]": {"assay": "Luminescence Cell-Based Dose Retest to Confirm Inhibitors of Cancer Stem Cells. [Related pubchem assays (depositor defined):AID2717, AID2721]", "assay_type": "functional", "details": "Homo sapiens"}, "[10]": {"assay": "A cytotoxicity screen of small molecule inhibitors of the PhoP region in Salmonella typhi identified in the primary screen. [Related pubchem assays: 1850, 1864, 1985 ]", "assay_type": "functional"}, "[11]": {"target": "T3, Short transient receptor potential channel 4 (Mus musculus, UniProt Q9QUQ5)", "T3 sequence (Q9QUQ5 whole entry)": "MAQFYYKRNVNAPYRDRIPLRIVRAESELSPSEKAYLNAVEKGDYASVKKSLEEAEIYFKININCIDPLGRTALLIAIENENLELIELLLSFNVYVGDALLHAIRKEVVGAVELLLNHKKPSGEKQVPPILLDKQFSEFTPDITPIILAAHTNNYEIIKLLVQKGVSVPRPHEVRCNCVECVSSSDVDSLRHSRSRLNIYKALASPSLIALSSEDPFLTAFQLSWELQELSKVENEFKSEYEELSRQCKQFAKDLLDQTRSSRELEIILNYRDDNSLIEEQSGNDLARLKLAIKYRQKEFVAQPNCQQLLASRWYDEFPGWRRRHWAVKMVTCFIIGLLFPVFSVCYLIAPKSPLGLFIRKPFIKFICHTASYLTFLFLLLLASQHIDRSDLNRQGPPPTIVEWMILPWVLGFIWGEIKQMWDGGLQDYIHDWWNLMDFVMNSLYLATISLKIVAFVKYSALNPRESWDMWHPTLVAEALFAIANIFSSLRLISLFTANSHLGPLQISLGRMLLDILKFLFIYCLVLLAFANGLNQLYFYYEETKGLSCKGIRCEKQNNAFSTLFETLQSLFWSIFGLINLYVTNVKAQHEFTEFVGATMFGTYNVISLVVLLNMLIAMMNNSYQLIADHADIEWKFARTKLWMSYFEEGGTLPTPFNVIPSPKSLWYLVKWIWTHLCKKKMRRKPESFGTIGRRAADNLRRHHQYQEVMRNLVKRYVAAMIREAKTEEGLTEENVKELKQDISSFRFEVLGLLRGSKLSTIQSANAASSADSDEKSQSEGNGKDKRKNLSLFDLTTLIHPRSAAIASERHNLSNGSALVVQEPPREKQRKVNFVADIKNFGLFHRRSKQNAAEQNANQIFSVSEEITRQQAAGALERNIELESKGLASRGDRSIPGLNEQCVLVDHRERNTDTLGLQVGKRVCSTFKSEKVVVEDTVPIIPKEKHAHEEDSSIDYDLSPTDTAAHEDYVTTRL", "assay": "calcium entry via TRPC4 opening agents – cell-based, HEK293 TRPC4/mu-opioid, Fluo-4 calcium, dose response (AID 434937)", "assay_type": "functional"}, "[12]": {"system": "BJ", "assay": "cells", "assay_type": "functional, cell-based", "details": "Homo sapiens"}, "[13]": {"system": "BJ", "assay": "BJ-TERT fibroblast viability loss – cell-based, RAS-independent, luminescence, dose response (AID 1933)", "assay_type": "functional", "details": "Homo sapiens"}, "[14]": {"target": "T4, Protein skinhead-1 (Caenorhabditis elegans, UniProt P34707)", "T4 sequence (P34707 whole entry)": "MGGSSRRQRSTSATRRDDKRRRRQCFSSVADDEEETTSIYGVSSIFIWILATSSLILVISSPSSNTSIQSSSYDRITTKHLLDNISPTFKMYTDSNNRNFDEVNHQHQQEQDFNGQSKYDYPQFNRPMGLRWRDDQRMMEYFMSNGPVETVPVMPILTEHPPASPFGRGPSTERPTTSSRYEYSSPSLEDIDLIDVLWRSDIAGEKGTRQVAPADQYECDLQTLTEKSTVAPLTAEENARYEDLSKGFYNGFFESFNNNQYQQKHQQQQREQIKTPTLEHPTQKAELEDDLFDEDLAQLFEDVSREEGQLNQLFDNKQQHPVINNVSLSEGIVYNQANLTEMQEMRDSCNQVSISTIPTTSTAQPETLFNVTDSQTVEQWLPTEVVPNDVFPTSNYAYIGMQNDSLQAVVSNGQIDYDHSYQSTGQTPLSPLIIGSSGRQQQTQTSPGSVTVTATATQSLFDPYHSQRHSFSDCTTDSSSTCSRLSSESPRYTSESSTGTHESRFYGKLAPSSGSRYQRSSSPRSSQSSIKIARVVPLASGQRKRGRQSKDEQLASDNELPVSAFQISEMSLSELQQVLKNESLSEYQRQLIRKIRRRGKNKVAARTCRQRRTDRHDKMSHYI", "assay_type": "functional"}, "[15]": {"assay": "HEK-293T viability loss after treatment – luminescence, T-cell screen hits, cytotoxicity control for TCR NF-kB inhibitor project, dose response (AID 489026);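 further: cells exposed to compound about 14 hours before the viability readout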", "assay_type": "functional, cell-based"}, "[16]": {"assay": "DRD fibroblast viability loss – cell-based, non-viral oncogenic, luminescence, dose response (AID 1934)", "assay_type": "functional", "details": "Homo sapiens"}, "[17]": {"system": "BJ", "assay": "BJ-TERT-LT-ST fibroblast viability loss – cell-based, RAS-independent, luminescence, dose response (AID 1935);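 further: BJ fibroblasts immortalized with TERT plus LT and ST oncogenes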", "assay_type": "functional", "details": "Homo sapiens"}, "[18]": {"system": "INS1", "assay": "INS-1E survival protection against cytokine death – cell-based, luminescence, retest, dose response (AID 449756);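 further: cell death triggered by IL-1 beta plus TNF-alpha plus IFN-gamma mixture; protective hits raise ATP signal compared with cytokine alone wells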", "assay_type": "functional", "details": "Rattus norvegicus"}},
  "note": "The source made the active and inactive calls.",
  "data": [
    {"smiles": "CCCCn1c(-c2ccco2)n[nH]c1=S", "values": [
      {"measurement": "AC50", "setting": "[1]", "result": "33.6 µM (active)"},
      {"measurement": "IC50", "setting": "[2]", "result": "8.1 µM (active)"}
    ]},
    {"smiles": "COCCN(CCOC)c1nc(C)nc2c1nc(-c1ccccc1)n2CC1CCN(C)CC1", "values": [
      {"measurement": "AC50", "setting": "[3]", "result": "15.8 µM (inconclusive)"}
    ]},
    {"smiles": "Cc1cccc(N2N=C(C(=O)N3CC(=O)Nc4ccccc43)CCC2=O)c1", "values": [
      {"measurement": "IC50", "setting": "[4]", "result": "> 50 µM (inactive)"}
    ]},
    {"smiles": "O=C(O)c1ccc(COc2ccccc2/C=C2\\NC(=O)N(Cc3ccc(F)cc3)C2=O)cc1", "values": [
      {"measurement": "IC50", "setting": "[5]", "result": "6.42 µM (active)"}
    ]},
    {"smiles": "Cc1cc(C)cc(N2C(=O)NC(=O)/C(=C/c3cccn3-c3ccc(Cl)cc3)C2=O)c1", "values": [
      {"measurement": "EC50", "setting": "[6]", "result": "26.1 µM (active)"},
      {"measurement": "EC50", "setting": "[7]", "result": "10.6 µM (active)"},
      {"measurement": "EC50", "setting": "[8]", "result": "31.6 µM (active)"},
      {"measurement": "AC50", "setting": "[9]", "result": "1.04 µM (active)"}
    ]},
    {"smiles": "CC(c1cccnc1)N(CCN(C)C)C(=O)Nc1ccc(Cl)c(Cl)c1", "note": "(configuration not stated)", "values": [
      {"measurement": "EC50", "setting": "[10]", "result": "> 50 µM (active)"},
      {"measurement": "EC50", "setting": "[11]", "result": "1.5 µM (active)"}
    ]},
    {"smiles": "CCCCNc1nc(C)nc2c1nc(-c1ccccc1)n2CCCN(C)C", "values": [
      {"measurement": "AC50", "setting": "[3]", "result": "15.8 µM (inconclusive)"}
    ]},
    {"smiles": "O=C(c1ccc(Cl)cc1)c1cc([N+](=O)[O-])ccc1N1CCOCC1", "values": [
      {"measurement": "EC50", "setting": "[12]", "result": "19 µM (active)"},
      {"measurement": "EC50", "setting": "[13]", "result": "1.51 µM (active)"},
      {"measurement": "IC50", "setting": "[14]", "result": "56.9 µM (inactive)"},
      {"measurement": "IC50", "setting": "[15]", "result": "> 80 µM (inactive)"},
      {"measurement": "EC50", "setting": "[16]", "result": "1.17 µM (active)"},
      {"measurement": "EC50", "setting": "[17]", "result": "1.19 µM (inconclusive)"}
    ]},
    {"smiles": "COC(=O)C(NC(=O)c1ccco1)(Nc1nc(C)cs1)C(F)(F)F", "note": "(configuration not stated)", "values": [
      {"measurement": "IC50", "setting": "[4]", "result": "> 50 µM (inactive)"}
    ]},
    {"smiles": "O=C(c1ccc(Cl)cc1)C(CN1CCCCC1)c1ccccc1", "note": "(configuration not stated)", "values": [
      {"measurement": "EC50", "setting": "[7]", "result": "14.7 µM (active)"},
      {"measurement": "AC50", "setting": "[18]", "result": "19.4 µM (active)"}
    ]},
    {"smiles": "COc1ccc(C2Oc3cc(OC)cc(OC)c3CC2O)cc1", "note": "(configuration not stated)", "values": [
      {"measurement": "AC50", "setting": "[3]", "result": "20 µM (inconclusive)"}
    ]}
  ]
}
